# Assay results taken from ChEMBL document CHEMBL1201862, “PubChem BioAssay data set” (2004).
# Activity calls are given as the source filed them.
# What was measured:
# Cytochrome P450 3A4 = Cytochrome P450 3A4 (Homo sapiens, UniProt P08684);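 also: CYP3A4 tested as one member of a cytochrome P450 panel screen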
# [1] = biological target: T1, Corticotropin-releasing factor receptor 2/Corticotropin-releasing factor-binding protein (Homo sapiens, UniProt P24387+Q13324); experiment: activators of CRF receptor 2 with binding protein – uHTS hits, confirmation (AID 602473); type: functional; settings: read-out: EC50_Mean
# T1 sequence (Q13324 whole entry): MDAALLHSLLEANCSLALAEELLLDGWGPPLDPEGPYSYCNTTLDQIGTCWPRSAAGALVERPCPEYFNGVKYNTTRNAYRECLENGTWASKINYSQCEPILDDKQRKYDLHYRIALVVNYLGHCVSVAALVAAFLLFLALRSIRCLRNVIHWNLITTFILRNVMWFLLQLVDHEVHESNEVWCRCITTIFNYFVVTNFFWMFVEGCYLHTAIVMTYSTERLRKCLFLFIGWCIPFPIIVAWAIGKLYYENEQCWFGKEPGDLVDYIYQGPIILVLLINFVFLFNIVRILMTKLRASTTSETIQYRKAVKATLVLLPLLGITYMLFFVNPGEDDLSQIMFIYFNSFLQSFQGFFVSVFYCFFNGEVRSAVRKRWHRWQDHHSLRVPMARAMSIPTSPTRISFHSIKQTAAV
# T1 sequence (P24387 whole entry): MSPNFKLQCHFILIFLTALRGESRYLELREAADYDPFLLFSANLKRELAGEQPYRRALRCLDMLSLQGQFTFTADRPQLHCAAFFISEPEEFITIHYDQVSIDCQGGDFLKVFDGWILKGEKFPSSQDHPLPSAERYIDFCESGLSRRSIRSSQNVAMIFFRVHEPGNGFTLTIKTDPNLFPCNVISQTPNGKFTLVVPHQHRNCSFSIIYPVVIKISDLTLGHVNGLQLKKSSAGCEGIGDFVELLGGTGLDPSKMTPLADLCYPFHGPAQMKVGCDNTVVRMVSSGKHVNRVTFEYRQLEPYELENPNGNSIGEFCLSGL
# Cytochrome P450 2C19 = Cytochrome P450 2C19 (Homo sapiens, UniProt P33261); experiment: Cytochrome panel assay with activity outcomes. Panel member name: p450-cyp2c19 Compounds with AC50 equal or less than 10 uM are considered active; type: functional; settings: read-out: AC50
# Cytochrome P450 2C9 = Cytochrome P450 2C9 (Homo sapiens, UniProt P11712)
# [2] = system: Streptococcus sp. 'group A'; experiment: growth inhibition of control SK(-) GAS strain, dose response, counter-screen for streptokinase expression inhibitor project, luminescence, kanamycin, BacTiterGlo, confirmation (AID 1900); type: functional, organism-based
# Streptokinase A = biological target: T2, Streptokinase A (Streptococcus pyogenes serotype M1, UniProt P10520); experiment: S. pyogenes streptokinase expression inhibitors, potency, dose response, plasminogen activation absorbance, OD405 (AID 1914); type: functional, Streptococcus pyogenes M1 GAS;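 also: secreted streptokinase activity via plasminogen activation per viability signal from cell pellet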
# T2 sequence (P10520 whole entry): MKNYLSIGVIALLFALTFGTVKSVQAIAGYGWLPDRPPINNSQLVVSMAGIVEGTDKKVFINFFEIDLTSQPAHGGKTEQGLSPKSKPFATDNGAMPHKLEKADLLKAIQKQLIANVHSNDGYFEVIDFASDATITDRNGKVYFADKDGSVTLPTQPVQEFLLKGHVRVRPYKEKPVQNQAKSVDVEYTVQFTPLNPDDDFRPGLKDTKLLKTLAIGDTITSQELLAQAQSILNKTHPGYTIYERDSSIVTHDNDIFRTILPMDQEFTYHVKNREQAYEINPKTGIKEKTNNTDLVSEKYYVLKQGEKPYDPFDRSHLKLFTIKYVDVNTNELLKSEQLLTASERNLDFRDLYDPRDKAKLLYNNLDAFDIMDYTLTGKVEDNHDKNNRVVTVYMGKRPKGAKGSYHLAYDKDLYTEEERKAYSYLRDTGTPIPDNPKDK
# Streptococcus = experiment: Group A Streptococcus viability loss, dose response, counter-screen for streptokinase expression inhibitor project, luminescence, BacTiterGlo (AID 1915); type: functional, organism-based;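 also: potency for reduction of bacterial viability or growth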
# [3] = HEp-2 cell cytotoxicity, dose response, cytotoxicity control for RSV inhibitor project, HTS (AID 2410); type: functional; settings: human respiratory syncytial virus
# Cytochrome P450 1A2 = biological target: T3, Cytochrome P450 1A2 (Homo sapiens, UniProt P05177);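 also: PubChem cytochrome P450 panel assay, CYP1A2 panel member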
# T3 sequence (P05177 whole entry): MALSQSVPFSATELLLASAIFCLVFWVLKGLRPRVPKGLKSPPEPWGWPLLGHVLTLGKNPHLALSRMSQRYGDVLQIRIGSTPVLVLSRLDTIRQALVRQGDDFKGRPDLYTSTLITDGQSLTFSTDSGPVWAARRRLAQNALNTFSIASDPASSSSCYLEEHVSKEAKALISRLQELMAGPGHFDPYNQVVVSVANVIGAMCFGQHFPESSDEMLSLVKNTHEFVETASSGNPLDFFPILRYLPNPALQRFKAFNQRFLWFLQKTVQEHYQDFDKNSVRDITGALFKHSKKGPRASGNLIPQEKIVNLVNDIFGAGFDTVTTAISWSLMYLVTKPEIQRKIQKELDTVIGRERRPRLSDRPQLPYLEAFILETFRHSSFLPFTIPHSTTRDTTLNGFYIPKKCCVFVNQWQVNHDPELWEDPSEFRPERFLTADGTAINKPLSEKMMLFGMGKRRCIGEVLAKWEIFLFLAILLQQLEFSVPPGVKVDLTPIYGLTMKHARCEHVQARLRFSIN
# Sequence of Cytochrome P450 2C9 (P11712 whole entry): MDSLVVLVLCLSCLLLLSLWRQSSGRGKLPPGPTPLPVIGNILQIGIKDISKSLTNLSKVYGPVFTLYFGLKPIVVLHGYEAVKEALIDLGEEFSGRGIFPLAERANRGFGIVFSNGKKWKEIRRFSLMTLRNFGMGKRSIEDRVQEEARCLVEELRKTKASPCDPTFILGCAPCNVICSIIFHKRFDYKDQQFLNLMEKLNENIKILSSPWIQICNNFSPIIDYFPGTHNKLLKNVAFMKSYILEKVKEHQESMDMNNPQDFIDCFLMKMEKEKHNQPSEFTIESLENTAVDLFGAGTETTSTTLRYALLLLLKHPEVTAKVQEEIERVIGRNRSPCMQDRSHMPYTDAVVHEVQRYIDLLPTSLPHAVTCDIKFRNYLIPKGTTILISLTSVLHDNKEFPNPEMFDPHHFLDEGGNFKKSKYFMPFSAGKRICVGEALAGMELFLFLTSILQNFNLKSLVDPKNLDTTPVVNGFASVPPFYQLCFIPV
# Sequence of Cytochrome P450 3A4 (P08684 whole entry): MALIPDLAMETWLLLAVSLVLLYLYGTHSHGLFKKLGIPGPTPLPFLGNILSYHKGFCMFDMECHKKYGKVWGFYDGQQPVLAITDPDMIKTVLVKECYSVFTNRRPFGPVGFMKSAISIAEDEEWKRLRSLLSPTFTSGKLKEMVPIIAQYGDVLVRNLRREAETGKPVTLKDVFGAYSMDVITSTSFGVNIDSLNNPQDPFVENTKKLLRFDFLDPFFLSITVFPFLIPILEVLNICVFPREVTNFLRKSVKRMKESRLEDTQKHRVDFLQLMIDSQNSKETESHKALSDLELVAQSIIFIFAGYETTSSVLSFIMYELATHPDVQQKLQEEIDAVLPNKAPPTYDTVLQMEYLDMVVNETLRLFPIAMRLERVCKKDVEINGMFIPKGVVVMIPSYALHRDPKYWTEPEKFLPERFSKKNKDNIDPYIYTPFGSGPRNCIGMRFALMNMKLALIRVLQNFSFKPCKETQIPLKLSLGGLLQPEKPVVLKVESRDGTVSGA
# Sequence of Cytochrome P450 2C19 (P33261 whole entry): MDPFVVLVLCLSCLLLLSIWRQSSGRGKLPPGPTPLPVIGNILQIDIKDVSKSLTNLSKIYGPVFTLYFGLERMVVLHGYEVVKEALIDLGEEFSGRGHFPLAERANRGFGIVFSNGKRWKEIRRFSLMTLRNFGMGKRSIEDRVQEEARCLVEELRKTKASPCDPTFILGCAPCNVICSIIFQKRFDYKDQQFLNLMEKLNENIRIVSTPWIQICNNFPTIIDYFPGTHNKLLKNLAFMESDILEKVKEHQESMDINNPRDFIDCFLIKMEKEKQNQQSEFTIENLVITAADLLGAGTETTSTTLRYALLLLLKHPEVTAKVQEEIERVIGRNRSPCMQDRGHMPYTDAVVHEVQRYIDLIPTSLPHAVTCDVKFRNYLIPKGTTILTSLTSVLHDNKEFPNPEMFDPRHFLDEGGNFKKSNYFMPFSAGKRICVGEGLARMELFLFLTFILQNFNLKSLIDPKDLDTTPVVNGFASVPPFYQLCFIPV
compound,measurement,setting,value
CC(C)NC(=O)N1CC2(CCN(C(=O)c3ccncc3)CC2)C1,AC50,Cytochrome P450 3A4,0.0794 µM (inconclusive)
COc1ccc(-c2nc3cnc(Nc4cccc(OC)c4)nc3n(C[C@H]3CCCO3)c2=O)cc1,AC50,Cytochrome P450 3A4,5.01 µM (inconclusive)
CC(C)NC(=O)N(C)C[C@H]1OCc2cnnn2CCCC(=O)N([C@H](C)CO)C[C@H]1C,EC50,[1],> 53 µM (inactive)
COc1ccc(C(=O)N2CCC[C@@]3(CCN(c4ccccc4)C3)C2)cc1,AC50,Cytochrome P450 3A4,7.94 µM (inconclusive)
CC(=O)c1cccc(NC(=O)c2csc(-n3nc(C)cc3C(F)(F)F)n2)c1,AC50,Cytochrome P450 2C19,7.94 µM (inconclusive)
same,AC50,Cytochrome P450 2C9,1 µM (inconclusive)
CC(C)(C)c1nc(SCC(=O)Nc2ccc(N3CCOCC3)cc2)c2ccccc2n1,AC50,Cytochrome P450 3A4,1 µM (inconclusive)
CCOc1cc(CNc2ccc3c(c2)CCC3)ccc1OC,EC50,[2],> 150 µM (not active)
same,EC50,Streptokinase A,> 150 µM (not active)
same,EC50,Streptococcus,> 150 µM (not active)
Cc1ccc(NC2c3ncccc3C(=O)N2Cc2ccc(F)cc2)cc1 (stereo unspecified),CC50,[3],> 50 µM (active)
Cc1ccc(Cn2c(C(C)Nc3nc(-c4ccc(F)cc4)cs3)nc3cc(Cl)c(Cl)cc32)cc1 (stereo unspecified),CC50,[3],49.3 µM (active)
CCNc1nc(NCC)nc(-n2nc(C)cc2C)n1,EC50,[2],17.2 µM (active)
same,EC50,Streptokinase A,> 150 µM (not active)
same,EC50,Streptococcus,> 150 µM (not active)
COC(=O)[C@@]1(Cc2ccc(OC)cc2)[C@H]2c3cc(C(=O)N4CCCC4)n(CCn4cc([N+](=O)[O-])nc4C)c3C[C@H]2CN1C(=O)c1ccccc1,AC50,Cytochrome P450 2C9,31.6 µM (inconclusive)
CC[C@@H](c1ccccc1)n1c(=O)n2n(c1=O)[C@H]1[C@H](O)[C@H]3O[C@@H]3/C(=N/OCc3ccccc3)[C@@H]1CC2,AC50,Cytochrome P450 3A4,5.01 µM (inconclusive)
CCOC(=O)c1nn(-c2ccccc2Cl)c(=O)cc1OCC(=O)Nc1cccc(OC)c1,EC50,[2],31.2 µM (active)
same,EC50,Streptokinase A,> 150 µM (not active)
same,EC50,Streptococcus,> 150 µM (not active)
Cc1ccc2[nH]c(/C(C#N)=C\c3cc(C)n(-c4cccc([N+](=O)[O-])c4)c3C)nc2c1,CC50,[3],16.6 µM (active)
COCCN1C(=O)C(O)=C(C(=O)c2cccc(OC)c2)C1c1ccc(C)o1 (stereo unspecified),AC50,Cytochrome P450 1A2,12.6 µM (inconclusive)
same,AC50,Cytochrome P450 2C9,31.6 µM (inconclusive)
Cc1cc(Br)cc2c1N(C)C(=O)C2(c1ccc(O)cc1)c1ccc(O)cc1,CC50,[3],13.8 µM (active)
CCOc1ccc(NS(=O)(=O)c2ccc(C(=O)N3CC(C)OC(C)C3)cc2)cc1 (stereo unspecified),EC50,[1],7.94 µM (active)
Cc1cccc(CNc2ncnc3ccc(-c4c(C)noc4C)cc23)c1,AC50,Cytochrome P450 2C9,1 µM (inconclusive)
CC(/C=C/c1ccccc1)=N\NC(=O)C1CC1(C)c1ccccc1 (stereo unspecified),CC50,[3],32 µM (active)
O=S(=O)(c1ccccc1)N1CCC2(CCN(c3ccc(-c4ccccc4)cc3)CC2)CC1,AC50,Cytochrome P450 3A4,20 µM (inconclusive)
CCCCC(=O)NC(=S)NNC(=O)CCc1ccccc1,EC50,[2],3.35 µM (active)
same,EC50,Streptococcus,8.5 µM (active)
same,EC50,[1],4.32 µM (active)
O=C(NNc1nc(-c2ccc(F)cc2)cs1)c1ccccc1,EC50,[2],0.831 µM (active)
same,EC50,Streptokinase A,> 150 µM (not active)
same,EC50,Streptococcus,> 150 µM (not active)
Cn1cc(-c2nc3cnc(Oc4ccccc4)nc3n(C3CC3)c2=O)c2ccccc21,AC50,Cytochrome P450 1A2,5.01 µM (inconclusive)
same,AC50,Cytochrome P450 3A4,25.1 µM (inconclusive)
CCCCNC1=N/C(=C\c2ccco2)C(=O)N1c1ccccc1,AC50,Cytochrome P450 2C19,39.8 µM (inconclusive)
same,AC50,Cytochrome P450 2C9,4.47 µM (inconclusive)
CCC/C=C(\CCC)C(NS(=O)(=O)c1cccc2cccnc12)c1ccc(-c2ccccc2)cc1 (stereo unspecified),AC50,Cytochrome P450 2C19,2.51 µM (inconclusive)
same,AC50,Cytochrome P450 1A2,0.794 µM (inconclusive)
CCCc1cc2c(n1Cc1cccc(Cl)c1)C(C)C1CN(C(=O)c3ccccc3)C(C)(C(=O)OC)C21 (stereo unspecified),AC50,Cytochrome P450 1A2,31.6 µM (inconclusive)
CC[C@@H](CO)Nc1nc(NCc2ccccc2)c2ncn(C(C)C)c2n1 [(S)-ROSCOVITINE],AC50,Cytochrome P450 2C9,0.316 µM (inconclusive)
CC1CN(S(=O)(=O)c2cccc(C(=O)Nc3cc(Cl)ccc3N3CCOCC3)c2)CC(C)O1 (stereo unspecified),CC50,[3],43 µM (active)
CCC/C=C(\CCC)C(NS(=O)(=O)c1ccc(C(F)(F)F)cc1)c1ccc(C(=O)OC)cc1 (stereo unspecified),AC50,Cytochrome P450 3A4,1 µM (inconclusive)
Clc1ccc(-c2n[nH]c3c2CCC3)c(Cl)c1,EC50,Streptokinase A,> 150 µM (not active)
OC(COc1ccc(Cl)c2ccccc12)CN1CCN(c2ccccn2)CC1 (stereo unspecified),CC50,[3],18.3 µM (active)
CN(C)c1ncc2nc(-c3cc(F)cc(F)c3)c(=O)n(-c3ccccc3)c2n1,AC50,Cytochrome P450 1A2,0.316 µM (inconclusive)
CN(C)c1ccc(-c2cncnc2NCCc2cnc[nH]2)cc1,AC50,Cytochrome P450 2C9,0.501 µM (inconclusive)
CC(NC(=O)Nc1ccc(Cl)cc1)c1ccc2c(c1)OCO2 (stereo unspecified),CC50,[3],39.5 µM (active)
COC(=O)N1CCC2(CCN(C(=O)NC(C)C)CC2)CC1,AC50,Cytochrome P450 1A2,20 µM (inconclusive)
same,AC50,Cytochrome P450 2C9,12.6 µM (inconclusive)
CCOC(=O)n1ccn(C)c1=S [CARBIMAZOLE],AC50,Cytochrome P450 1A2,12.6 µM (inconclusive)
Cc1cc(NC(=O)c2cc(C(C)C)on2)no1,AC50,Cytochrome P450 1A2,20 µM (inconclusive)
COc1ccc2nc(NC(C)=O)sc2c1,AC50,Cytochrome P450 2C19,39.8 µM (inconclusive)
same,AC50,Cytochrome P450 3A4,28.2 µM (inconclusive)
O=c1c(CCc2ccccc2)nc2cnc(Oc3ccccc3)nc2n1C1CC1,AC50,Cytochrome P450 3A4,15.8 µM (inconclusive)
CCC(=O)Nc1c2c(nc3c1CCC3)CCCC2,AC50,Cytochrome P450 1A2,15.8 µM (inconclusive)
Cn1cccc1CC(=O)NNC(=S)NC(=O)c1ccccc1Br,EC50,[2],5.95 µM (active)
same,EC50,Streptokinase A,> 150 µM (not active)
same,EC50,Streptococcus,137 µM (active)
CC(=O)Nc1ccc(OCC(=O)N2CCC(Cc3ccccc3)CC2)cc1,CC50,[3],21.6 µM (active)
CCn1c2ccccc2c2cc(NC(=O)C(C)Oc3ccc(OC)cc3)ccc21 (stereo unspecified),CC50,[3],> 50 µM (active)
same,AC50,Cytochrome P450 2C9,7.94 µM (inconclusive)
O=c1c2ccccc2c(-c2ccccc2)nn1Cc1ccc(Cl)cc1,AC50,Cytochrome P450 1A2,0.0708 µM (inconclusive)
C[C@]12C=CC(=O)C=C1CC[C@@H]1[C@H]3C[C@@H](O)[C@](O)(C(=O)CO)[C@@]3(C)C[C@H](O)[C@]12F,AC50,Cytochrome P450 2C9,15.8 µM (inconclusive)
O=C(Nc1ccc(F)cc1F)c1cccnc1Oc1cccc(C(F)(F)F)c1,AC50,Cytochrome P450 1A2,0.794 µM (inconclusive)
CCCc1nc2ccccc2c(=O)n1NC(=O)c1c(O)c2cccc3c2n(c1=O)CCC3,EC50,[2],3.78 µM (active)
same,EC50,Streptokinase A,> 150 µM (not active)
same,EC50,Streptococcus,7.68 µM (active)
COC(=O)c1cc(C(=O)Nc2nc3ccccc3[nH]2)cc([N+](=O)[O-])c1,EC50,[2],3.94 µM (active)
same,EC50,Streptokinase A,> 150 µM (not active)
same,EC50,Streptococcus,> 150 µM (not active)
COc1ccccc1NC(=O)Nc1ccc(Cc2ccncc2)cc1,CC50,[3],19.1 µM (active)
O=S(=O)(c1ccccc1)N1CCC2(CCN(c3ccccc3)CC2)CC1,AC50,Cytochrome P450 2C19,10 µM (inconclusive)
same,AC50,Cytochrome P450 3A4,2.51 µM (inconclusive)
same,AC50,Cytochrome P450 2C9,39.8 µM (inconclusive)
